According to patent US5405849A, “Angiotensin II receptor blocking 2,3,6 substituted quinazolinones” (American Cyanamid Company, priority 1993, dated 1995):

How the values were obtained:
[1] = system: angiotensin II (AII) vasopressor response; assay: AII challenge: antagonism of the vasopressor response of angiotensin II in conscious Okamoto-Aoki SHR; format: in vivo, rat (Okamoto-Aoki SHR); conditions: 30 mg/kg iv; for inhibition in vivo at 30 mg/kg: Rattus norvegicus, iv
Procedure, shortened: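 Conscious male Okamoto-Aoki spontaneously hypertensive rats, 16-20 weeks old and about 330 g, received caudal arterial and venous cannulae under local 2% procaine anesthesia. They were kept upright in restraining cages while pulsatile blood pressure was recorded by pressure transducer. The systolic pressure rise to i.v. angiotensin II was measured before and after test compound dosing. Inhibition was expressed relative to each rat's predose response, taken as 100%.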

[2] = molecular target: angiotensin II receptors; assay: Angiotensin II receptor binding (displacement of 3H-angiotensin II), rat adrenocortical microsomes; conditions: 2 nM 3H-angiotensin II
Procedure: The source of the angiotensin II receptors utilized in the screen is from rat adrenocortical microsomes. The cortices are placed in ice cold sucrose buffer (0.2 m sucrose, 1 mm EDTA, 10 mm Trizma base, pH 7.4) and homogenized in a chilled ground glass tissue grinder. The homogenate is centrifuged at 3000×g for 10 min. and the resultant supernatant is decanted through cheesecloth and centrifuged at 12,000×g for 3 min. […] Binding assays are performed by incubating aliquots of freshly prepared microsomes in the absence or presence of compound (40 uM final concentration). Ten minutes later, ^3 H-angiotensin II is added to each tube (2 nM final concentration) and incubated for 60 minutes at […]. The reaction is terminated by the addition of 3 ml of cold assay buffer without albumin and the bound and free radioactivity is separated rapidly through glass-fiber filters prewetted with assay buffer. After two additional 3 ml rinses, the filters are placed in scintillation fluid and counted in a scintillation counter to determine trapped radioactivity.

`CCCCc1nc2ccc(C(CC)OC)cc2c(=O)n1Cc1ccc(-c2ccccc2-c2nnn[nH]2)cc1` (stereo not shown) [Example 55, 2-Butyl-6-(1-methoxypropyl)-3-[[2'-(1H-tetrazol-5-yl) [1,1'-biphenyl]-4-yl]methyl]-4(3H) -quinazolinone] was tested, and the “Response change (systolic BP increase to AII)” value ([1]; AII .05 ug/kg, 30 min) was 10 mmHg, the “Response change (systolic BP increase to AII)” value ([1]; AII .05 ug/kg, 90 min) was 15 mmHg and the “Response change (systolic BP increase to AII)” value ([1]; AII .05 ug/kg, 150 min) was 20 mmHg. For the same molecule, the “Response change (systolic BP increase to AII)” value ([1]; AII .1 ug/kg, 30 min) was 15 mmHg, the “Response change (systolic BP increase to AII)” value ([1]; AII .1 ug/kg, 90 min) was 5 mmHg and the “Response change (systolic BP increase to AII)” value ([1]; AII .1 ug/kg, 150 min) was 5 mmHg. For the same molecule, the inhibition in vivo at 30 mg/kg ([1]; 0.5 h, AII .05 ug/kg, 30 min) was 82%, the inhibition in vivo at 30 mg/kg ([1]; 0.5 h, AII .1 ug/kg, 30 min) was 73% and the inhibition in vivo at 30 mg/kg ([1]; 1.5 h, AII .05 ug/kg, 90 min) was 73%. The inhibition in vivo at 30 mg/kg ([1]; 1.5 h, AII .1 ug/kg, 90 min) was 91%, the inhibition in vivo at 30 mg/kg ([1]; 2.5 h, AII .05 ug/kg, 150 min) was 64% and the inhibition in vivo at 30 mg/kg ([1]; 2.5 h, AII .1 ug/kg, 150 min) was 91%. For the same molecule, the IC50 [2] was 5 nM.
